In the NIST ThermoML archive (doi:10.1016/j.fluid.2010.02.020):
Values joined by “and” are separate entries in the source; they are usually repeats but may differ in a detail not shown here. Identical values can stand only once. Numbers after ± are expanded uncertainties.

Details: for mass density: 101.33 kPa, Liquid, Vibrating tube method; for surface tension liquid-gas: Pendant drop shape

Compound: CCCCCCCCn1cc[n+](C)c1.O=S(=O)([N-]S(=O)(=O)C(F)(F)F)C(F)(F)F
- mass density (293.15 K): 1326.5 ± 5.3 kg/m3
- mass density (303.15 K): 1317.5 ± 5.3 kg/m3
- surface tension liquid-gas (313 K): 29.2 ± 1.3 mN/m
- mass density (313.15 K): 1308.6 ± 5.3 kg/m3
- surface tension liquid-gas (313.2 K): 28.5 ± 1.3 mN/m
- mass density (323.15 K): 1299.8 ± 5.2 kg/m3
- surface tension liquid-gas (332.6 K): 27.4 ± 1.1 mN/m
- mass density (333.15 K): 1291.2 ± 5.2 kg/m3
- surface tension liquid-gas (333.3 K): 28.2 ± 1.1 mN/m
- mass density (343.15 K): 1282.5 ± 5.1 kg/m3
- surface tension liquid-gas (352.8 K): 26.1 ± 1.1 mN/m
- mass density (353.15 K): 1273.9 ± 5.1 kg/m3
- surface tension liquid-gas (353.8 K): 27.3 ± 1.1 mN/m
- mass density (363.15 K): 1265.3 ± 5.1 kg/m3
- surface tension liquid-gas (372.8 K): 25.2 ± 1.1 mN/m
- mass density (373.15 K): 1256.7 ± 5 kg/m3
- surface tension liquid-gas (373.6 K): 26.3 ± 1.1 mN/m
- mass density (383.15 K): 1248.1 ± 5 kg/m3
- surface tension liquid-gas (392.9 K): 24 ± 1.1 mN/m
- mass density (393.15 K): 1239.5 ± 5 kg/m3
- surface tension liquid-gas (393.6 K): 25.3 ± 1.1 mN/m
- mass density (403.15 K): 1230.9 ± 4.9 kg/m3
- surface tension liquid-gas (412.9 K): 23.1 ± 1.1 mN/m
- mass density (413.15 K): 1222.2 ± 4.9 kg/m3
- surface tension liquid-gas (413.4 K): 24.3 ± 1.1 mN/m
- mass density (423.15 K): 1213.5 ± 4.9 kg/m3
- surface tension liquid-gas (432.8 K): 22.1 ± 1.1 mN/m
- mass density (433.15 K): 1204.8 ± 4.8 kg/m3
- surface tension liquid-gas (433.3 K): 23.2 ± 1.1 mN/m
- mass density (443.15 K): 1195.9 ± 4.8 kg/m3
- surface tension liquid-gas (452.5 K): 21.5 ± 1 mN/m
- mass density (453.15 K): 1187 ± 4.8 kg/m3
- surface tension liquid-gas (453.4 K): 22.1 ± 1 mN/m
- mass density (463.15 K): 1178 ± 4.7 kg/m3
- surface tension liquid-gas (472.4 K): 19.7 ± 1 mN/m
- mass density (473.15 K): 1168.8 ± 4.7 kg/m3
- surface tension liquid-gas (473.6 K): 20.7 ± 1 mN/m
- surface tension liquid-gas (493 K): 20.1 ± 1 mN/m
- surface tension liquid-gas (512.6 K): 19.2 ± 1 mN/m

Compound: CCCCCCCCCCCCn1cc[n+](C)c1.O=S(=O)([N-]S(=O)(=O)C(F)(F)F)C(F)(F)F
- mass density (293.15 K): 1249.6 ± 5 kg/m3
- mass density (303.15 K): 1240.9 ± 5 kg/m3
- mass density (313.15 K): 1232.4 ± 4.9 kg/m3
- mass density (323.15 K): 1224 ± 4.9 kg/m3
- mass density (333.15 K): 1215.6 ± 4.9 kg/m3
- surface tension liquid-gas (333.3 K): 26.4 ± 1 mN/m
- mass density (343.15 K): 1207.4 ± 4.8 kg/m3
- mass density (353.15 K): 1199.2 ± 4.8 kg/m3
- surface tension liquid-gas (353.6 K): 25.4 ± 1 mN/m
- mass density (363.15 K): 1190.9 ± 4.8 kg/m3
- mass density (373.15 K): 1182.8 ± 4.7 kg/m3
- surface tension liquid-gas (373.7 K): 24.5 ± 1 mN/m
- mass density (383.15 K): 1174.7 ± 4.7 kg/m3
- mass density (393.15 K): 1166.2 ± 4.7 kg/m3
- surface tension liquid-gas (393.6 K): 23.6 ± 1 mN/m
- mass density (403.15 K): 1158.4 ± 4.6 kg/m3
- mass density (413.15 K): 1150.2 ± 4.6 kg/m3
- surface tension liquid-gas (413.7 K): 22.5 ± 1 mN/m
- mass density (423.15 K): 1142 ± 4.6 kg/m3
- mass density (433.15 K): 1133.7 ± 4.5 kg/m3
- surface tension liquid-gas (433.6 K): 21.4 ± 1 mN/m
- surface tension liquid-gas (453.8 K): 20.4 ± 1 mN/m
- surface tension liquid-gas (473.7 K): 19.5 ± 1 mN/m
- surface tension liquid-gas (493.3 K): 18.8 ± 1 mN/m
- surface tension liquid-gas (512.9 K): 17.8 ± 1 mN/m
- surface tension liquid-gas (532.6 K): 16.9 ± 1 mN/m

Compound: CCCC[n+]1ccn(C)c1.O=S(=O)([N-]S(=O)(=O)C(F)(F)F)C(F)(F)F
- mass density (293.15 K): 1442.3 ± 5.8 kg/m3
- mass density (303.15 K): 1432.8 ± 5.8 kg/m3
- surface tension liquid-gas (312.6 K): 31.9 ± 1.1 mN/m
- mass density (313.15 K): 1423.4 ± 5.7 kg/m3
- surface tension liquid-gas (313.3 K): 31.9 ± 1.1 mN/m and 30.4 ± 1.1 mN/m
- mass density (323.15 K): 1414.1 ± 5.7 kg/m3
- surface tension liquid-gas (332.6 K): 30.8 ± 1.1 mN/m
- surface tension liquid-gas (333.1 K): 31.2 ± 1.1 mN/m
- mass density (333.15 K): 1404.8 ± 5.6 kg/m3
- surface tension liquid-gas (333.5 K): 29.7 ± 1.3 mN/m
- mass density (343.15 K): 1395.6 ± 5.6 kg/m3
- surface tension liquid-gas (352.6 K): 30.2 ± 1.1 mN/m
- mass density (353.15 K): 1386.3 ± 5.6 kg/m3
- surface tension liquid-gas (353.6 K): 28.8 ± 1.1 mN/m
- surface tension liquid-gas (353.7 K): 30.1 ± 1.1 mN/m
- mass density (363.15 K): 1377.1 ± 5.5 kg/m3
- surface tension liquid-gas (372.7 K): 27.9 ± 1 mN/m
- mass density (373.15 K): 1367.9 ± 5.5 kg/m3
- surface tension liquid-gas (373.6 K): 28.1 ± 1.1 mN/m
- surface tension liquid-gas (374.1 K): 29.2 ± 1.1 mN/m
- mass density (383.15 K): 1358.7 ± 5.5 kg/m3
- surface tension liquid-gas (392.7 K): 26.2 ± 1 mN/m
- mass density (393.15 K): 1349.4 ± 5.4 kg/m3
- surface tension liquid-gas (393.6 K): 25.9 ± 1.1 mN/m
- surface tension liquid-gas (394.2 K): 28.1 ± 1.3 mN/m
- mass density (403.15 K): 1340.1 ± 5.4 kg/m3
- surface tension liquid-gas (412.5 K): 26 ± 1 mN/m
- mass density (413.15 K): 1330.7 ± 5.3 kg/m3
- surface tension liquid-gas (413.6 K): 25.6 ± 1 mN/m
- surface tension liquid-gas (414.4 K): 27.2 ± 1.1 mN/m
- mass density (423.15 K): 1321.2 ± 5.3 kg/m3
- surface tension liquid-gas (432.5 K): 25.6 ± 1 mN/m
- surface tension liquid-gas (432.6 K): 24.9 ± 1.1 mN/m
- mass density (433.15 K): 1311.6 ± 5.3 kg/m3
- surface tension liquid-gas (434.5 K): 26.6 ± 1.1 mN/m
- mass density (443.15 K): 1301.9 ± 5.2 kg/m3
- surface tension liquid-gas (452.2 K): 24.4 ± 1 mN/m and 24.2 ± 1 mN/m
- mass density (453.15 K): 1292.1 ± 5.2 kg/m3
- surface tension liquid-gas (455 K): 25.8 ± 1 mN/m
- mass density (463.15 K): 1282.2 ± 5.1 kg/m3
- surface tension liquid-gas (472 K): 23.3 ± 1 mN/m
- surface tension liquid-gas (473 K): 23.7 ± 1 mN/m
- mass density (473.15 K): 1272 ± 5.1 kg/m3
- surface tension liquid-gas (475.2 K): 24.6 ± 1 mN/m
